The target in this experiment is T1, calf thymus intracellular vitamin D receptor (VDR) (Bos taurus, UniProt Q28037).
T1 construct: calf thymus intracellular vitamin D receptor (VDR); from tissue; host or cells: calf thymus
T1 sequence (Q28037 1-426): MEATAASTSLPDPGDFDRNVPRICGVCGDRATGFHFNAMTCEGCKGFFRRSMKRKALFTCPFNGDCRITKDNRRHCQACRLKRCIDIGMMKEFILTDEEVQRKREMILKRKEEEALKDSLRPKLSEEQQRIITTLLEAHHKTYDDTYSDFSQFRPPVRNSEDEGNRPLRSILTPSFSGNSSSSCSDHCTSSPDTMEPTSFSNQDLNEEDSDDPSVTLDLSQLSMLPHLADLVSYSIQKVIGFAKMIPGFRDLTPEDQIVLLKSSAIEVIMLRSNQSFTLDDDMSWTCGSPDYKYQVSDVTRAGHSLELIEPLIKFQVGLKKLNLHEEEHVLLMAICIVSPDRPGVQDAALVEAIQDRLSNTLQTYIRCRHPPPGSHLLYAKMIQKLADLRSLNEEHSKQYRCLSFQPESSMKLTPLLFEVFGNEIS
Kind of experiment: Affinity towards the calf thymus intracellular vitamin D receptor, replacement of 3H-calcitriol. Format: binding. From the text:
In this assay ^3 H-calcitriol (1α,25-dihydroxycholecalciferol), which is specifically bound to the VDR, is replaced by the tested compound.

Data on 1 compound can be found in patent US5403940A, “Vitamin D compound, method of preparing this compound and intermediate thereof” (Duphar International Research B.V., priority 1991, dated 1995).

Consider `C=C1/C(=C\C=C2/CCC[C@]3(CO)[C@@H]([C@H](C)CCCC(C)(C)O)CC[C@@H]23)C[C@@H](O)C[C@@H]1O` [compound 46], for which the IC50 (compound dissolved in ethanol, 10^-13 to 10^-7 M, 3H-calcitriol bound to VDR, read-out: IC50 value, i.e. 50% replacement of 3H-calcitriol) is 0.25 nM. For the same compound, the “affinity to the VDR” value (conclusion drawn from the IC50) is reported as “high affinity to the VDR”.
